Measured values published in patent US20240382509A1, “Cannabinoids C- and O-glycosides possessing anti-proliferative and anti-metastatic properties and process for preparation thereof” (Council of Scientific and Industrial Research, priority 2021, published 2024).
Like-named read-outs stand apart in the source and are kept apart here.

Tests used:
[1] = system: MIAPaCa-2 cells; assay: Cell scatter assay; assay type: cell-based, human; settings: MIAPaCa-2, 1, 2, 3 μM, 36 h, compared to vehicle and parent molecule
Description: Cell scatter assay MIAPaCa-2 cells were seeded onto a 12 well plate at a seeding density of 500 cells/well and kept for 4-5 days, and there was the formation of scatter colonies since the cell line itself is a metastatic cell line. Accordingly, they were treated with 1 μM, 2 μM & 3 μM of compound 2, 2a, 2b, 3, 3a, 4, 4a & 4b for 36 h, and upon termination, they were washed with PBS and observed under an inverted microscope at 20× magnification (FIG. 3).

[2] = MTT cell viability assay, fR2 normal epithelial cells; assay type: cell-based, human; settings: human, fR2 normal epithelial cells; MTT, 48 h; normal epithelial cell line; read-out: Cytotoxicity (IC50) fR2
Description: (§1) Cell viability assay: The cell viability was determined by the standard MTT assay method. Briefly, Panc-1, HCT-116, A549, PC3, MIAPaca-2, HT-29, MDA-MB-231, MCF7 cells, and fR2cells were seeded in 96 well tissue culture plates (Nunc) at a density of 4×10^3 cells per well and treated with varying concentrations of the test compounds in triplicates. DMSO was taken as a vehicle, and its final concentration was maintained at 0.2% in the culture medium. Doxorubicin was employed as a positive control. After 44 h of incubation, MTT dye solution was added into the medium, and cells were incubated for another 4 h at 37° C. in 5% CO2. The amount of colored formazan derivatives formed was measured by taking optical density (OD) using a microplate reader (TECAN, Infinite M200 Pro) at 570 nm, and the percentage of cell viability was calculated. The IC50 values were calculated using GraphPad Prism software (Version 5.0).

[3] = system: lung adenocarcinoma cells (A549); assay: MTT cell viability assay, A549; assay type: cell-based
Description: as §1

[4] = system: HCT-116 cells; assay: MTT cell viability assay, HCT-116; assay type: cell-based; settings: colorectal adenocarcinoma cells
Description: as §1

[5] = system: Panc-1 cells; assay: MTT cell viability assay, Panc-1; assay type: cell-based; settings: for IC50: pancreatic cancer cells
Description: as §1

[6] = system: PC3 cells; assay: MTT cell viability assay, PC3; assay type: cell-based
Description: as §1

[7] = system: human colorectal adenocarcinoma cell line (HT-29); assay: MTT cell viability assay, HT-29; assay type: cell-based; settings: human colorectal adenocarcinoma cell line
Description: as §1

[8] = system: MIAPaCa-2 cells; assay: MTT cell viability assay, MIAPaCa-2; assay type: cell-based, human
Description: as §1

[9] = system: MCF-7 cells; assay: MTT cell viability assay, MCF-7; assay type: cell-based; settings: breast cancer cell of epithelial origin
Description: as §1

[10] = system: Panc-1 cells; assay: Colony formation assay; assay type: cell-based; settings: Panc-1, 1000 cells/well, 5 days, compared to corresponding parent compounds
Description: Colony formation assay. […] cells were seeded onto 6 well plates with a seeding density of 1000 cells/well. The cells after attachment were treated with 2 (2a, 2b), 3 (3a, 3b), 4 (4a, 4b) along with DMSO as a vehicle control and incubated for 5-6 days. After incubation, the plates were washed with ice-cold PBS, and the cells were fixed with methanol for 5 min. After fixing. the cells were stained with 0.2% crystal violet stain for 1 h. The cells were then washed with distilled water to remove the stain and were observed under an inverted microscope at 20× magnification.
The anti-proliferative properties of glycosidic derivatives were further analysed by colony formation assay in pancreatic cancer cells. The novel C-glycosidic derivatives of compounds 1, 2, 3 and 4 viz 1b, 2b, 3b & 4b display anti-proliferative property (FIG. 2). Panc-1cells were seeded onto 6 well plates at seeding density 1000 cells/well and treated with indicated concentration of 1b, 2b, 3b and 4b derivatives along with their parent compounds and DMSO as vehicle for 5 days. Upon termination the cells were stained with crystal violet and images of field were photographed.

[11] = Homo sapiens, HCT-116, 48 h, read-out: Cytotoxicity (IC50) HCT-116, MTT, 48 h
[12] = Homo sapiens, PC-3, 48 h, read-out: Cytotoxicity (IC50) PC3, MTT, 48 h
[13] = Homo sapiens, HT-29, 48 h, read-out: Cytotoxicity (IC50) HT-29, MTT, 48 h
[14] = Homo sapiens, MIA PaCa-2, 48 h, read-out: Cytotoxicity (IC50) MIAPaCa-2, MTT, 48 h
[15] = Homo sapiens, MCF7, 48 h, read-out: Cytotoxicity (IC50) MCF-7, MTT, 48 h
[16] = Homo sapiens, A549, 48 h, read-out: Cytotoxicity (IC50) A549, MTT, 48 h
[17] = Homo sapiens, PANC-1, 48 h, read-out: Cytotoxicity (IC50) Panc-1, MTT, 48 h

SMILES: CCCCCc1cc(O[C@@H]2OC(CO)[C@@H](O)C(O)C2O)c2c(c1)OC(C)(C)[C@@H]1CC=C(C)C[C@@H]21 (single isomer, unassigned) [Compound 3a, Δ^8-tetrahydrocannabinol-1-O-β-D-glucopyranoside]
- cell scattering [1]: did not prevent cell scattering
- IC50 at 48 h [2]: > 100 µM
- IC50 ([3]; read-out: Cytotoxicity (IC50) A549, MTT, 48 h): 2.15 µM
- IC50 [4, 11]: 30.2 µM
- IC50 ([5]; read-out: Cytotoxicity (IC50) Panc-1, MTT, 48 h): 3.16 µM
- IC50 [6, 12]: 38 µM
- IC50 [7, 13]: 10.7 µM
- IC50 [8, 14]: 0.742 µM
- IC50 [9, 15]: 34.9 µM

SMILES: CCCCCc1cc(O)c2c(c1)OC(C)(C)c1ccc(C)cc1-2 (single isomer, unassigned) [Compound 4, Cannabinol, reference compound]
- IC50 [3, 16]: 2.13 µM
- IC50 [4, 11]: 47.1 µM
- IC50 [5, 17]: 11.8 µM
- IC50 [6, 12]: 28 µM
- IC50 [7, 13]: 20.4 µM
- IC50 [8, 14]: 1.63 µM
- IC50 [9, 15]: 50.6 µM

SMILES: CCCc1cc(O)c2c(c1)OC(C)(C)[C@@H]1CCC(C)=C[C@@H]21 [Compound 1, Δ^9-tetrahydrocannabivarin, reference compound]
- IC50 ([3]; MTT, 48 h, read-out: Cytotoxicity (IC50) A549): 39.4 µM
- IC50 ([4]; MTT, 48 h, read-out: Cytotoxicity (IC50) HCT-116): 10.7 µM
- IC50 ([5]; MTT, 48 h, read-out: Cytotoxicity (IC50) Panc-1): 9.28 µM
- IC50 ([6]; MTT, 48 h, read-out: Cytotoxicity (IC50) PC3): 88.2 µM
- IC50 ([7]; MTT, 48 h, read-out: Cytotoxicity (IC50) HT-29): 46.2 µM
- IC50 ([8]; MTT, 48 h, read-out: Cytotoxicity (IC50) MIAPaCa-2): 23.2 µM
- IC50 ([9]; MTT, 48 h, read-out: Cytotoxicity (IC50) MCF-7): > 100 µM

SMILES: CCCc1cc(O[C@@H]2OC(CO)[C@@H](O)C(O)C2O)c2c(c1)OC(C)(C)[C@@H]1CC=C(C)C[C@@H]21 (stereo partly drawn) [Compound 1a, Δ^8-tetrahydrocannabivarin-1-O-β-D-glucopyranoside]
- IC50 [3, 16]: 53.1 µM
- IC50 [4, 11]: 32.9 µM
- IC50 [5, 17]: 21.4 µM
- IC50 [6, 12]: > 100 µM
- IC50 [7, 13]: > 100 µM
- IC50 [8, 14]: > 100 µM
- IC50 [9, 15]: 90.6 µM

SMILES: CCCc1cc2c(c(O)c1[C@@H]1OC(CO)[C@@H](O)C(O)C1O)[C@@H]1CC(C)=CC[C@H]1C(C)(C)O2 (stereo partly drawn) [Compound 1b, Δ^8-tetrahydrocannabivarin-2-C-β-D-glucopyranoside]
- anti-proliferative potential in colony formation assay [10]: strong anti-proliferative potential
- IC50 ([3]; Homo sapiens, A549, 48 h, MTT, 48 h, read-out: Cytotoxicity (IC50) A549): 35.7 µM
- IC50 ([4]; Homo sapiens, HCT-116, 48 h, MTT, 48 h, read-out: Cytotoxicity (IC50) HCT-116): 3.91 µM
- IC50 ([5]; Homo sapiens, PANC-1, 48 h, MTT, 48 h, read-out: Cytotoxicity (IC50) Panc-1): 4.12 µM
- fold activity compared to parent compound, pancreatic cancer cells ([5]; ratio of IC50 parent vs derivative, Panc-1): > 2 fold
- IC50 ([6]; Homo sapiens, PC-3, 48 h, MTT, 48 h, read-out: Cytotoxicity (IC50) PC3): 24 µM
- IC50 ([7]; Homo sapiens, HT-29, 48 h, MTT, 48 h, read-out: Cytotoxicity (IC50) HT-29): 40.2 µM
- IC50 ([8]; Homo sapiens, MIA PaCa-2, 48 h, MTT, 48 h, read-out: Cytotoxicity (IC50) MIAPaCa-2): 9.2 µM
- IC50 ([9]; Homo sapiens, MCF7, 48 h, MTT, 48 h, read-out: Cytotoxicity (IC50) MCF-7): > 100 µM
